In PubChem BioAssay (NCI):
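Exposure lasted 48 hours, with cells grown in 96-well plates and compounds tested at five concentrations. Definition used: TGI = concentration required for complete inhibition of growth.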

How the values were obtained:
Test in all cases: NCI-60 cell line screen, 48 h
UO-31 renal = system: UO-31 renal
UACC-62 melanoma = system: UACC-62 melanoma
HCC-2998 colon = system: HCC-2998 colon
MDA-MB-435 = system: MDA-MB-435
ACHN renal = system: ACHN renal
SNB-19 CNS = system: SNB-19 CNS
SF-539 CNS = system: SF-539 CNS
HOP-62 NSCLC = system: HOP-62 NSCLC
NCI/ADR-RES ovarian = system: NCI/ADR-RES ovarian
SK-MEL-5 melanoma = system: SK-MEL-5 melanoma
KM12 colon = system: KM12 colon
OVCAR-5 ovarian = system: OVCAR-5 ovarian
HCT-116 colon = system: HCT-116 colon
SK-MEL-2 melanoma = system: SK-MEL-2 melanoma
HS 578T breast = system: HS 578T breast
HOP-92 NSCLC = system: HOP-92 NSCLC
SR leukemia = system: SR leukemia

SMILES	TGI (UO-31 renal) [µM]	TGI (UACC-62 melanoma) [µM]	TGI (HCC-2998 colon) [µM]	TGI (MDA-MB-435) [µM]	TGI (ACHN renal) [µM]	TGI (SNB-19 CNS) [µM]	TGI (SF-539 CNS) [µM]	TGI (HOP-62 NSCLC) [µM]	TGI (NCI/ADR-RES ovarian) [µM]	TGI (SK-MEL-5 melanoma) [µM]	TGI (KM12 colon) [µM]	TGI (OVCAR-5 ovarian) [µM]	TGI (HCT-116 colon) [µM]	TGI (SK-MEL-2 melanoma) [µM]	TGI (HS 578T breast) [µM]	TGI (HOP-92 NSCLC) [µM]	TGI (SR leukemia) [µM]
FC(F)(F)c1ccc2nc(Sc3ccc4ccccc4c3)cnc2c1	> 100	> 100	> 100	> 100	> 100	> 100	> 100	> 100	> 100	> 100	> 100	> 100	> 100	66.3	> 100	> 100	
C=CC[C@H](N=C(SC)SC)C(=O)N1C(=O)N(C)[C@@H](C)[C@H]1c1ccccc1	> 100	> 100	92.2	> 100	> 100	> 100	> 100	> 100	> 100	> 100	> 100	> 100	> 100	91.2	> 100	68.3	
Cc1ccccc1NC(=O)Cc1csc(N=Nc2c(O)[nH]c3ccccc23)n1	> 100	> 100		> 1	> 100	> 100	32.3		> 100	> 100	> 100	> 100	> 100	> 100	84.9	> 100	
CN1CCC2(CC1)C(=NC1CCCCC1)NC(=O)N2c1ccccc1	> 100	> 100	> 100		> 100	> 100		> 100	> 100	> 100	> 100	> 100	> 100		> 100	> 100	> 100
CCn1c2ccccc2c2cc(Nc3cc(C)[nH]c(=O)n3)ccc21	> 100	> 100	> 100	> 100	> 100	> 100	> 100	> 100	> 100		> 100	> 100	> 100	> 100		> 100	
CC(C)(C)C1=C(Br)C(OC(=O)C(F)(F)F)(C(C)(C)C)OP1(=O)c1ccccc1 (stereo not drawn)	> 100	95.4	> 100	> 100	> 100	> 100	> 100	76.8	> 100	> 100	> 100	> 100	> 100	> 100	65.5	92.5	
Cc1csc(-n2c(C)nc3cc(Cl)ccc3c2=O)n1	> 100	> 100	> 100	> 100	> 100	> 100	> 100	> 100	> 100	> 100	> 100	> 100	> 100	> 100		> 100	> 100
CC/C(=C\c1ccc(OC)cc1)c1ccc(OC)cc1	> 100	> 100	> 100	> 100	> 100	> 100	> 100	> 100	> 100	80.7	> 100	> 100	> 100	> 100	> 100	> 100	
O=c1c2ccccc2nc(-c2ccccc2)n1NC(=S)Nc1cccc(Cl)c1	> 100	> 100			> 100		> 100	> 100		> 100	> 100	> 100	> 100	> 100		94.5	> 100
COc1ccc2c([nH]c3c(O)c(-c4c(C)cc5c([nH]c6c(CC=C(C)C)c(OC)ccc65)c4O)c(C)cc32)c1CC=C(C)C	> 100	> 100	> 100		> 100	> 100	> 100	> 100		> 100	> 100	> 100	> 100	> 100		> 100	> 100
CN(C)CN(C)c1nc(N(C)C)nc(N(C)CN(C)C)n1	> 100	40.9	> 100		> 100	> 100	> 100	> 100		> 100	> 100		> 100	42.6		> 100	58.3
COC(=O)c1ccc(NCC2=C(Br)C(=O)C=CC2=O)cc1Cl	34.7	33.8	> 100	38.1	30.7	> 100	35.7		75.4	41.1	> 100	36.7	31.9	52.6	> 100	29.1	
C=C1CC2[C@H](C)C(=O)CCC2(C)C2=C1C1CCC(C(C)CCC(=C)C(C)C(=O)O)C1(C)CC2=O (stereo partly drawn)	99.4	> 100	> 100	> 100	> 100	> 100	> 100	> 100	> 100	> 100	> 100	> 100	> 100	> 100	> 100	85.2	
COc1cc(C(C#N)NNc2nc(C)cc(=O)[nH]2)cc(OC)c1OC (stereo not drawn)	> 100	> 100			> 100		> 100	> 100		> 100	> 100	> 100	> 100	> 100		> 100	> 100
CC(C)[Si](OCC1CC(C#N)OC(C)(C)O1)(C(C)C)C(C)C (stereo not drawn)	40.9	> 100	38.4		29.4	50.8	79	44.3		33	35.9	> 100	30.1	30.6		57.2	41.5
